We go through 43 molecules from ChEMBL document CHEMBL4340506, “Inhibition of a viral prolyl hydroxylase” (Bioorg Med Chem, 2019).

The source made the active and inactive calls. The rule behind the calls is not given here. Where a SMILES comes first, the peptide text is derived from it. [ ]: non-standard residue; d: D form. Pro(cis-4-F) = O=C(O)[C@@H]1C[C@H](F)CN1; Hyp = O=C(O)[C@@H]1C[C@@H](O)CN1

What is called IC50 is the point on the concentration scale where inhibition reaches its midpoint. The Ki is the equilibrium dissociation constant of an inhibitor or competing ligand from its target.

One experiment concerns the target T1, Prolyl 4-hydroxylase (Paramecium bursaria Chlorella virus 1) (UniProt Q84406).
T1 sequence (whole entry): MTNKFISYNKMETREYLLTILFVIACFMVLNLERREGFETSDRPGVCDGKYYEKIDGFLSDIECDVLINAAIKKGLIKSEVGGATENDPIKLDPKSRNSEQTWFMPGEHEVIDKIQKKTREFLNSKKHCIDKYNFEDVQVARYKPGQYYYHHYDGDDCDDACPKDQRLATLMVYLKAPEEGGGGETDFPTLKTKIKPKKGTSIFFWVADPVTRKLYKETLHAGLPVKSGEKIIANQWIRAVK
Put plainly: Substrate activity at N-terminal His6-tagged recombinant Paramecium bursaria chlorella virus 1 CPH expressed in Escherichia coli Rosetta 2 (DE3) cells assessed as substrate hydroxylation at 100 uM incubated for 16 hrs in presence of 2OG by MALDI TOF MS analysis.
Consider `C[C@H](NC(=O)[C@H](CCCCN)NC(=O)[C@@H]1C[C@@H](O)CN1C(=O)[C@H](C)NC(=O)[C@@H]1CCCN1)C(=O)N[C@@H](C)C(=O)N1CCC[C@H]1C(=O)N[C@@H](CCCCN)C(=O)O` (H-PA[Hyp]KAAPK-OH), for which the outcome was inactive. On the same count and under the same terms, next, `C[C@H](NC(=O)[C@H](CCCNC(=N)N)NC(=O)[C@H](CCCCN)NC(=O)[C@@H]1C[C@@H](O)CN1C(=O)[C@H](C)NC(=O)[C@@H]1CCCN1)C(=O)N1CCC[C@H]1C(=O)N[C@@H](CCCCN)C(=O)O` (H-PA[Hyp]KRAPK-OH): “inactive”; `C[C@H](NC(=O)[C@H](Cc1ccc(O)cc1)NC(=O)[C@H](CCCCN)NC(=O)[C@@H]1C[C@@H](O)CN1C(=O)[C@H](C)NC(=O)[C@@H]1CCCN1)C(=O)N1CCC[C@H]1C(=O)N[C@@H](CCCCN)C(=O)O` (H-PA[Hyp]KYAPK-OH): “inactive”. Still for that read-out and setting: next, `C[C@H](NC(=O)[C@@H]1CCCN1)C(=O)N1C[C@H](O)C[C@H]1C(=O)N[C@@H](CCCCN)C(=O)N[C@H](C(=O)N[C@@H](C)C(=O)N1CCC[C@H]1C(=O)N[C@@H](CCCCN)C(=O)O)[C@@H](C)O` (H-PA[Hyp]KTAPK-OH): “inactive”; `C[C@H](NC(=O)[C@H](Cc1c[nH]c2ccccc12)NC(=O)[C@H](CCCCN)NC(=O)[C@@H]1C[C@@H](O)CN1C(=O)[C@H](C)NC(=O)[C@@H]1CCCN1)C(=O)N1CCC[C@H]1C(=O)N[C@@H](CCCCN)C(=O)O` (H-PA[Hyp]KWAPK-OH): “inactive”. With `C[C@H](NC(=O)[C@H](CCCCN)NC(=O)[C@H](CCCCN)NC(=O)[C@@H]1C[C@@H](O)CN1C(=O)[C@H](C)NC(=O)[C@@H]1CCCN1)C(=O)N1CCC[C@H]1C(=O)N[C@@H](CCCCN)C(=O)O` (H-PA[Hyp]KKAPK-OH), the result was inactive.

Consider `CC[C@H](C)[C@H](NC(=O)[C@H](CCCCN)NC(=O)[C@@H]1C[C@@H](O)CN1C(=O)[C@H](C)NC(=O)[C@@H]1CCCN1)C(=O)N[C@@H](C)C(=O)N1CCC[C@H]1C(=O)N[C@@H](CCCCN)C(=O)O` (H-PA[Hyp]KIAPK-OH), for which the outcome was inactive.

`CSCC[C@H](NC(=O)[C@H](CCCCN)NC(=O)[C@@H]1C[C@@H](O)CN1C(=O)[C@H](C)NC(=O)[C@@H]1CCCN1)C(=O)N[C@@H](C)C(=O)N1CCC[C@H]1C(=O)N[C@@H](CCCCN)C(=O)O` (H-PA[Hyp]KMAPK-OH): the result was inactive.

Take `C[C@H](NC(=O)[C@H](Cc1cnc[nH]1)NC(=O)[C@H](CCCCN)NC(=O)[C@@H]1C[C@@H](O)CN1C(=O)[C@H](C)NC(=O)[C@@H]1CCCN1)C(=O)N1CCC[C@H]1C(=O)N[C@@H](CCCCN)C(=O)O` (H-PA[Hyp]KHAPK-OH): the result was inactive.

On to `C[C@H](NC(=O)[C@H](CCC(N)=O)NC(=O)[C@H](CCCCN)NC(=O)[C@@H]1C[C@@H](O)CN1C(=O)[C@H](C)NC(=O)[C@@H]1CCCN1)C(=O)N1CCC[C@H]1C(=O)N[C@@H](CCCCN)C(=O)O` (H-PA[Hyp]KQAPK-OH), for which the outcome was inactive.

As for `CC(C)C[C@H](NC(=O)[C@H](CCCCN)NC(=O)[C@@H]1C[C@@H](O)CN1C(=O)[C@H](C)NC(=O)[C@@H]1CCCN1)C(=O)N[C@@H](C)C(=O)N1CCC[C@H]1C(=O)N[C@@H](CCCCN)C(=O)O` (H-PA[Hyp]KLAPK-OH), the outcome was inactive. Still for that read-out and setting: next, `C[C@H](NC(=O)[C@H](CC(N)=O)NC(=O)[C@H](CCCCN)NC(=O)[C@@H]1C[C@@H](O)CN1C(=O)[C@H](C)NC(=O)[C@@H]1CCCN1)C(=O)N1CCC[C@H]1C(=O)N[C@@H](CCCCN)C(=O)O` (H-PA[Hyp]KNAPK-OH): “inactive”; `C[C@H](NC(=O)[C@H](CS)NC(=O)[C@H](CCCCN)NC(=O)[C@@H]1C[C@@H](O)CN1C(=O)[C@H](C)NC(=O)[C@@H]1CCCN1)C(=O)N1CCC[C@H]1C(=O)N[C@@H](CCCCN)C(=O)O` (H-PA[Hyp]KCAPK-OH): “inactive”; `C[C@H](NC(=O)CNC(=O)[C@H](CCCCN)NC(=O)[C@@H]1C[C@@H](O)CN1C(=O)[C@H](C)NC(=O)[C@@H]1CCCN1)C(=O)N1CCC[C@H]1C(=O)N[C@@H](CCCCN)C(=O)O` (H-PA[Hyp]KGAPK-OH): “inactive”. Still for that read-out and setting: the same measure for `C[C@H](NC(=O)[C@H](CO)NC(=O)[C@H](CCCCN)NC(=O)[C@@H]1C[C@@H](O)CN1C(=O)[C@H](C)NC(=O)[C@@H]1CCCN1)C(=O)N1CCC[C@H]1C(=O)N[C@@H](CCCCN)C(=O)O` (H-PA[Hyp]KSAPK-OH): “inactive”; for `C[C@H](NC(=O)[C@@H]1CCCN1)C(=O)N1C[C@H](O)C[C@H]1C(=O)N[C@@H](CCCCN)C(=O)N1C[C@@H](F)C[C@H]1C(=O)N[C@@H](C)C(=O)N1CCC[C@H]1C(=O)N[C@@H](CCCCN)C(=O)O` (H-PA[Hyp]K[Pro(cis-4-F)]APK-OH): “Active”. Same read-out and setting: next, `C[C@H](NC(=O)[C@H](CCC(=O)O)NC(=O)[C@H](CCCCN)NC(=O)[C@@H]1C[C@@H](O)CN1C(=O)[C@H](C)NC(=O)[C@@H]1CCCN1)C(=O)N1CCC[C@H]1C(=O)N[C@@H](CCCCN)C(=O)O` (H-PA[Hyp]KEAPK-OH): “inactive”; `C[C@H](NC(=O)[C@H](CC(=O)O)NC(=O)[C@H](CCCCN)NC(=O)[C@@H]1C[C@@H](O)CN1C(=O)[C@H](C)NC(=O)[C@@H]1CCCN1)C(=O)N1CCC[C@H]1C(=O)N[C@@H](CCCCN)C(=O)O` (H-PA[Hyp]KDAPK-OH): “inactive”. On to `CC(C)[C@H](NC(=O)[C@H](CCCCN)NC(=O)[C@@H]1C[C@@H](O)CN1C(=O)[C@H](C)NC(=O)[C@@H]1CCCN1)C(=O)N[C@@H](C)C(=O)N1CCC[C@H]1C(=O)N[C@@H](CCCCN)C(=O)O` (H-PA[Hyp]KVAPK-OH), for which the result was inactive. On to `C[C@H](NC(=O)[C@H](Cc1ccccc1)NC(=O)[C@H](CCCCN)NC(=O)[C@@H]1C[C@@H](O)CN1C(=O)[C@H](C)NC(=O)[C@@H]1CCCN1)C(=O)N1CCC[C@H]1C(=O)N[C@@H](CCCCN)C(=O)O` (H-PA[Hyp]KFAPK-OH), for which the result was inactive.

In the next experiment the target is T2, Prolyl 3-hydroxylase OGFOD1 (Homo sapiens, UniProt Q8N543).
T2 sequence (Q8N543 whole entry): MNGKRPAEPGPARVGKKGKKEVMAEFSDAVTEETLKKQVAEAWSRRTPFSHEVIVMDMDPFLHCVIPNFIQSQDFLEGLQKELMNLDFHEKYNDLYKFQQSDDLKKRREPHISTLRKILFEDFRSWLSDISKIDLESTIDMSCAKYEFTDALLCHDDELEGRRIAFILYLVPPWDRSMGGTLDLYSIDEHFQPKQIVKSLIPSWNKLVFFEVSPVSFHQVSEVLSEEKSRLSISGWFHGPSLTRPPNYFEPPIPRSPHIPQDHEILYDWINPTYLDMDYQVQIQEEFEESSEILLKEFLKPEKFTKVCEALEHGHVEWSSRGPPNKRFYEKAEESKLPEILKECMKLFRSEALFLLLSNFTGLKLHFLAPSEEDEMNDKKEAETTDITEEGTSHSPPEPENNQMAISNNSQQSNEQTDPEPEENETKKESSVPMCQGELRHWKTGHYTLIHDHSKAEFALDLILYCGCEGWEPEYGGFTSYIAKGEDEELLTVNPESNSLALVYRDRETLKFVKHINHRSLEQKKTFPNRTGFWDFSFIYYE
The experiment in a line: Inhibition of recombinant human OGFOD1 using 2OG as substrate and Fe2 as co-factor assessed as hydroxylation incubated for 15 mins in presence of L-ascorbate by MALDI-TOF MS analysis.
`CC(C)(C)OC(=O)c1ccc(-n2[nH]cc(-n3ccnn3)c2=O)nc1`: the IC50 came to 5.1 µM.

For the molecule `O=C(O)CNC(=O)c1c(O)n(C2CCCCC2)c(=O)n(C2CCCCC2)c1=O`, the IC50 was 2.1 µM.

The target of the next experiment is T3, Prolyl 4-hydroxylase (Paramecium bursaria Chlorella virus 1, UniProt Q84406).
T3 sequence (Q84406 whole entry): T1 sequence (whole entry)
Put plainly: Inhibition of N-terminal His6-tagged recombinant Paramecium bursaria chlorella virus 1 CPH expressed in Escherichia coli Rosetta 2 (DE3) cells pre-incubated for 5 mins before 2OG as substrate and Fe2 as co-factor addition in presence of L-ascorbate and measured after 5 mins MALDI TOF MS analysis.
With `CN(C)NC(=O)CCC(=O)O`, the IC50 was more than 100 µM. The same measure, in the same setting: the same measure for `O=C(O)CCC(=O)O` [SUCCINIC ACID]: more than 1000 µM; for `O=C(O)/C=C(/CC(=O)O)C(=O)O`: more than 1000 µM. For `Cc1ccsc1C(NC(=O)c1ccccc1)c1cc(Cl)c2cccnc2c1O` (stereo not given), the IC50 was more than 100 µM.

As to `O=C(O)CNC(=O)C(=O)O` [N-OXALYLGLYCINE], the IC50 was 21.2 µM and the Ki was 48.7 µM. In the case of `O=C(O)CC(=O)C(=O)O` [OXALOACETATE], the IC50 was more than 1000 µM.

On to `CCCCCCCCOC(=O)c1ccc(O)c2ncccc12`, for which the half-maximal inhibitory concentration (IC50) is more than 100 µM. Turning to `CC(C)(C)OC(=O)c1ccc(-n2[nH]cc(-n3ccnn3)c2=O)nc1`, the IC50 was 2.5 µM.

As to `O=C(O)CNC(=O)c1nc(Cl)c2ccccc2c1O`, the half-maximal inhibitory concentration (IC50) is 4.5 µM and the Ki stood at 0.71 µM. For `O=C(O)c1ccc(O)c2ncccc12`, the IC50 stood at 47.2 µM. Consider `O=C(O)c1c[nH]c2c(ccc3cccnc32)c1=O`, for which the IC50 was 15.7 µM. `O=C(O)CNC(=O)c1ncc(-c2cccc(Cl)c2)cc1O`: the IC50 was less than 1 µM and the inhibitory constant (Ki) was found to be 0.28 µM.

Consider `O=C(O)c1ccnc(C(=O)O)c1`, for which the IC50 came out at 5.3 µM and the Ki is 3.28 µM. As for `O=C(O)CC[C@H](O)C(=O)O`, the IC50 is more than 500 µM. Same read-out and setting: next, `O=C(O)C[C@H](O)C(=O)O`: more than 1000 µM. Still for that read-out and setting: the same measure for `O=C(O)CCNc1cc(N2CCc3ccccc3CC2)nc(-c2ccccn2)n1`: 15.9 µM; for `O=C(O)/C=C/C(=O)O` [FUMARIC ACID]: more than 1000 µM.

In the case of `O=C(O)CNC(=O)c1c(O)n(C2CCCCC2)c(=O)n(C2CCCCC2)c1=O`, the IC50 turned out to be 13.4 µM and the Ki worked out at 7.65 µM. Take `O=C(O)C[C@H](C(=O)O)[C@@H](O)C(=O)O` [ISOCITRIC ACID]: the IC50 was 284 µM.

Turning to `O=C(O)CC[C@@H](O)C(=O)O`, the IC50 was more than 500 µM.

Regarding `CC(=O)C(=O)O` [PYRUVATE], the IC50 was more than 1000 µM.

On to `N[C@@H](CCC(=O)O)C(=O)O` [GLUTAMIC ACID], for which the IC50 was more than 1000 µM. Same read-out and setting: next, `O=C(O)CC(O)(CC(=O)O)C(=O)O` [CITRIC ACID]: 213 µM.
